This is an account of results in BindingDB's records for doi:10.1021/acs.jmedchem.0c00337 (Peking Union Medical College, 2020).

Structures are written as SMILES. pEC50, pIC50: −log10 of the molar value.

One may read the pEC50 as the EC50 on a negative log10 scale, so that one unit is a factor of ten. A word on the pIC50: it is the negative decadic logarithm of the IC50, by convention in mol/L.

A short description of one data set: Reversal of Pgp-mediated DOX resistance in human SW620/AD300 cells assessed as concentration required to show half of DOX IC50 incubated for 48 hrs by SRB assay. For orientation: Sulforhodamine B stains cellular protein and so reports cell mass.
In the case of `COc1cc2c(cc1OC)CN(CCc1ccc(NC(=O)/C=C/c3ccc(Oc4ccc(-c5ccccn5)c(C#N)c4)nc3)cc1)CC2`, the pEC50 is 7.29.
Turning to `COc1cc2c(cc1OC)CN(CCc1ccc(NC(=O)/C=C/c3ccc(Oc4ccc(-c5cccnc5)cc4)nc3)cc1)CC2`, the pEC50 is 6.99.
Take `COc1cc2c(cc1OC)CN(CCc1ccc(NC(=O)/C=C/c3ccc(Oc4ccc(-c5ccccn5)c(Cl)c4)nc3)cc1)CC2`: the pEC50 was 7.43.

Another data set can be described thus: Reversal of Pgp-mediated DOX resistance in human SW620/AD300 cells assessed as potentiation of DOX-induced cytotoxicity by measuring DOX IC50 at 1 uM incubated for 48 hrs by SRB assay (Rvb = 33.39 +/- 7.08 uM).
As for `COc1cc2c(cc1OC)CN(CCc1ccc(NC(=O)/C=C/c3cccc(Oc4ccc(-c5ccccn5)cc4)n3)cc1)CC2`, the pIC50 is 6.00.
Regarding `COc1cc2c(cc1OC)CN(CCc1ccc(NC(=O)/C=C/c3ccc(Oc4c(I)cc(-c5ccccn5)cc4I)nc3)cc1)CC2`, the pIC50 is 5.93.
Consider `COc1cc2c(cc1OC)CN(CCc1ccc(NC(=O)/C=C/c3ccc(Oc4ccc(-c5ccccn5)c(C)c4)nc3)cc1)CC2`, for which the pIC50 is 6.31.
In the case of `COc1cc2c(cc1OC)CN(CCc1ccc(NC(=O)/C=C/c3ccc(Oc4cccc(-c5ccccn5)c4)nc3)cc1)CC2`, the pIC50 is 6.12.
`COc1cc2c(cc1OC)CN(CCc1ccc(NC(=O)/C=C/c3ccc(Oc4ccc(-c5ccccn5)c(C#N)c4)nc3)cc1)CC2`: the pIC50 was 6.21.
`COc1cc2c(cc1OC)CN(CCc1ccc(NC(=O)C3CC3c3ccc(Oc4ccc(-c5ccccn5)cc4)nc3)cc1)CC2` (configuration not stated): the pIC50 was 6.12.
Take `COc1cc2c(cc1OC)CN(CCc1ccc(NC(=O)C(O)c3c(-c4ccccc4)n(C)c4ccccc34)cc1)CC2` (configuration not stated): the pIC50 was 5.96.
Same read-out and setting: to `COc1cc2c(cc1OC)CN(CCc1ccc(NC(=O)/C=C/c3ccc(Oc4cc(O)c(-c5ccccn5)c(O)c4)nc3)cc1)CC2` belongs 6.11; to `COc1ccc2c(C)c(CC(=O)Nc3ccc(CCN4CCc5cc(OC)c(OC)cc5C4)cc3)c(=O)oc2c1`, 5.71; to `COc1cc2c(cc1OC)CN(CCc1ccc(NC(=O)C(c3c(-c4ccccc4)n(C)c4ccccc34)N3CCOCC3)cc1)CC2` (configuration not stated), 6.26.
Regarding `COc1cc2c(cc1OC)CN(CCc1ccc(NC(=O)/C=C/c3ccc(Oc4ccc(-c5ccccn5)c(O)c4)nc3)cc1)CC2`, the pIC50 is 6.09.
On to `COc1cc2c(cc1OC)CN(CCc1ccc(NC(=O)/C=C/c3ccc(Oc4ccc(-c5ccccn5)cc4Br)nc3)cc1)CC2`, for which the pIC50 was 6.15.
Regarding `COc1cc2c(cc1OC)CN(CCc1ccc(NC(=O)/C=C/c3ccc(Oc4ccc(-c5ccccn5)cc4I)nc3)cc1)CC2`, the pIC50 is 6.12.
Regarding `COc1cc2c(cc1OC)CN(CCc1ccc(NC(=O)/C=C/c3cc(-c4ccccn4)cc(C)c3Oc3ccccn3)cc1)CC2`, the pIC50 is 6.26.
With `COc1cc2c(cc1OC)CN(CCc1ccc(NC(=O)/C=C/c3ccc(Oc4ccc(-c5cccnc5)cc4)nc3)cc1)CC2`, the pIC50 is 6.41.
Same read-out and setting: to `COc1cc2c(cc1OC)CN(CCc1ccc(NC(=O)/C=C/c3c(-c4ccccc4)oc4ccccc4c3=O)cc1)CC2` belongs 5.87; to `COc1cc2c(cc1OC)CN(CCc1ccc(NC(=O)/C=C/c3ccc(Oc4ccc(-c5ccccn5)c(Cl)c4)nc3)cc1)CC2`, 6.25.
For the compound `COc1cc2c(cc1OC)CN(CCc1ccc(NC(=O)/C=C/c3ccc(Oc4ccc(-c5ccccn5)cc4C)nc3)cc1)CC2`, the pIC50 was 6.13.
Consider `COc1cc2c(cc1OC)CN(CCc1ccc(NC(=O)/C=C/c3c(-c4ccccc4)n(C)c4ncccc34)cc1)CC2`, for which the pIC50 was 6.09.
